Assay results as given in the NIST ThermoML archive (doi:10.1016/j.fluid.2016.08.015).
± gives the expanded uncertainty stated by the source.

What was measured:
[1] = Liquid; for mass density: 293.15 K, 101.33 kPa, Vibrating tube method; for vapor or sublimation pressure: 298 K, Gas chromatography
[2] = refractive index (Na D-line) (dimensionless); conditions: 293.15 K; 101.33 kPa; Liquid; Standard Abbe refractometry

mass density [1] [kg/m3]	vapor or sublimation pressure [1] [kPa]	refractive index [2]	SMILES
1798 ± 1	2.57 ± 0.27	1.275 ± 0.001	FC(F)(F)C(F)(F)C(F)(F)C(F)(F)C(F)(F)C(F)(F)C(F)(F)C(F)(F)C(F)(F)F [eicosafluorononane]
1717 ± 1	10.12 ± 0.79	1.261 ± 0.001	FC(F)(F)C(F)(F)C(F)(F)C(F)(F)C(F)(F)C(F)(F)C(F)(F)F [hexadecafluoroheptane]
